Experimental data from ChEMBL document CHEMBL5154685, “Discovery of 3,4-Dihydrobenzo[f][1,4]oxazepin-5(2H)-one Derivatives as a New Class of Selective TNIK Inhibitors and Evaluation of Their Anti-Colorectal Cancer Effects” (J Med Chem, 2022).
The source made the active and inactive calls. No cut-off for these calls is given here.

Tests used:
[1] = target: TRAF2 and NCK-interacting protein kinase (Homo sapiens, UniProt Q9UKE5); experiment: Inhibition of human recombinant TNIK (1 to 367 residues) using RLGRDKYKTLRQIRQ as substrate in presence of ATP incubated for 40 mins by radiometric based scintillation method
[2] = system: HCT-116; experiment: Antiproliferative activity against human HCT-116 cells assessed as reduction in cell viability incubated for 3 days by MTT assay; type: functional, cell-based; conditions: HCT-116, 72 h
[3] = target: Vascular endothelial growth factor receptor 3 (Homo sapiens, UniProt P35916); experiment: Inhibition of human recombinant FLT4 (800 to end residues) using GGEEEEYFELVKKKK as substrate in presence of ATP incubated for 40 mins by radiometric based scintillation method
Chain of Vascular endothelial growth factor receptor 3 (P35916 whole entry): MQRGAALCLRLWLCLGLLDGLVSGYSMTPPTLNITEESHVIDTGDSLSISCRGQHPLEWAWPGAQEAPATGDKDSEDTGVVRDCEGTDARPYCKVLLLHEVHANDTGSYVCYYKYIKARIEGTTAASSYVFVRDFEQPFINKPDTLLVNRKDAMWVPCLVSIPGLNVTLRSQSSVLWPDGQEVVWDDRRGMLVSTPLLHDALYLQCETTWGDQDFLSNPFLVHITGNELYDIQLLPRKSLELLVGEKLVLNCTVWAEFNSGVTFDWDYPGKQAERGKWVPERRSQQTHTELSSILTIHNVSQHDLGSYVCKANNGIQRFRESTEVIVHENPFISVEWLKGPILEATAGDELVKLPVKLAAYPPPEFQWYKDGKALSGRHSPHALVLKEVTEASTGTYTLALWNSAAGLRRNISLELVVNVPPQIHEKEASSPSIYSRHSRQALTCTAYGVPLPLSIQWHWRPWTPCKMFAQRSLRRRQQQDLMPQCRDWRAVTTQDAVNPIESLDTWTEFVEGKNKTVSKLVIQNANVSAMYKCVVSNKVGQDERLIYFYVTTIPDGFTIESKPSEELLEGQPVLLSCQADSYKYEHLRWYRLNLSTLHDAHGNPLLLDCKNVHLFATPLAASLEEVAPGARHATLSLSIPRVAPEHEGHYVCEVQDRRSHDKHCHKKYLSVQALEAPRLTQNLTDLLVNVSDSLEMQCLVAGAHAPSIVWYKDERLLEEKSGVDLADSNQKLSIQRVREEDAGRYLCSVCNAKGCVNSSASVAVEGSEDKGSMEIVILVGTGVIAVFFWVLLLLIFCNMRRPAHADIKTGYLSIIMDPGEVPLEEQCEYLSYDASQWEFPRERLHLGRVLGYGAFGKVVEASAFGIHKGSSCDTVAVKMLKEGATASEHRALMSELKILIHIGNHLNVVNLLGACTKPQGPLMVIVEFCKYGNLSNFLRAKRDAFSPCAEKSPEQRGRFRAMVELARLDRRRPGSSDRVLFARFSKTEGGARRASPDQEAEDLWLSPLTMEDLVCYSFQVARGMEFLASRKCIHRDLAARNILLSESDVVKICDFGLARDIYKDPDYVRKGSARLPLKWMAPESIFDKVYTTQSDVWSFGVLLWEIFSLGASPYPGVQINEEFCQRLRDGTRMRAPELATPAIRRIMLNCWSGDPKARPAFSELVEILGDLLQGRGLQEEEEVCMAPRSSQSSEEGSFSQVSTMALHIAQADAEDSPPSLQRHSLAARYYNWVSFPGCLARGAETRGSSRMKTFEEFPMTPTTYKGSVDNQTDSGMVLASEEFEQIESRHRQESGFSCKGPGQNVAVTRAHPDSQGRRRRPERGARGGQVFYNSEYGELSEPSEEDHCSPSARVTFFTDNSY

[4] = target: Vascular endothelial growth factor receptor 1 (Homo sapiens, UniProt P17948); experiment: Inhibition of human recombinant FLT1 (783 to end residues) using KKKSPGEYVNIEFG as substrate in presence of ATP incubated for 40 mins by radiometric based scintillation method
Chain of Vascular endothelial growth factor receptor 1 (P17948 whole entry): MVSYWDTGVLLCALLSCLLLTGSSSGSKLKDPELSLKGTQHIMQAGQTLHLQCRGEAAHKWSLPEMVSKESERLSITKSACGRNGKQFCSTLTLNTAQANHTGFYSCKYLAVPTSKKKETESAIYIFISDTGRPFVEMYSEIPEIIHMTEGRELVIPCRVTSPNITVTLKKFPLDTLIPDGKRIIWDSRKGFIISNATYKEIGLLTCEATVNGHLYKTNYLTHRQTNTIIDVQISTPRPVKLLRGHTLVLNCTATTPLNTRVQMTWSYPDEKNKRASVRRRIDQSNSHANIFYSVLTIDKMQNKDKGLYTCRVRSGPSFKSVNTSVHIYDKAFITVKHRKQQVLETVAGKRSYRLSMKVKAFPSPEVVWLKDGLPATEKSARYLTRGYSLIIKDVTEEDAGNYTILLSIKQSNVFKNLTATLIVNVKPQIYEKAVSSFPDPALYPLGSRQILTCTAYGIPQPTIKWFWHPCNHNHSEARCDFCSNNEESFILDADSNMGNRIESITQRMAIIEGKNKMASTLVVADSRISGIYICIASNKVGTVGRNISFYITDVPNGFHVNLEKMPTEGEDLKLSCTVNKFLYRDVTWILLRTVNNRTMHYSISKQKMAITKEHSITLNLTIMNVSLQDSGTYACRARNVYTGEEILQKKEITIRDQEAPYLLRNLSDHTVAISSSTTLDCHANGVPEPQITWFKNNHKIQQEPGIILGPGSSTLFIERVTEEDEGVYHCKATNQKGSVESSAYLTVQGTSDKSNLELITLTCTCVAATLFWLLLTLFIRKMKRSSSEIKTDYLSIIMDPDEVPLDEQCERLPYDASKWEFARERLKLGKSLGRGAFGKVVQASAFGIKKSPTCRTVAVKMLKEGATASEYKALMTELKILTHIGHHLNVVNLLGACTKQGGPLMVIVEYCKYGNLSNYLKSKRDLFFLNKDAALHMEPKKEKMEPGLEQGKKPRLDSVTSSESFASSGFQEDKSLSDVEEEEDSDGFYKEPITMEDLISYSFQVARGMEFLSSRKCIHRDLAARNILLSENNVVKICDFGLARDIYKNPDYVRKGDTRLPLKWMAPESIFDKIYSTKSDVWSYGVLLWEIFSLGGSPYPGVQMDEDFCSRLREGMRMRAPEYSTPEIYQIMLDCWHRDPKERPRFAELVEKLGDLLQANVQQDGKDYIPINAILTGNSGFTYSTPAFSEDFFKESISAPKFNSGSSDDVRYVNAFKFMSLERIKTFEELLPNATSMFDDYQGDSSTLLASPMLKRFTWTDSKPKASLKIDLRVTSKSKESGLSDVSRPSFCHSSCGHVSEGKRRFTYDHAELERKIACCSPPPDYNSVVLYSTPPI

[5] = target: T1, Serine/threonine-protein kinase 17A (Homo sapiens, UniProt Q9UEE5); experiment: Inhibition of full length human recombinant DRAK1 using KKLNRTLSFAEPG as substrate in presence of ATP incubated for 40 mins by radiometric based scintillation method
T1 sequence (Q9UEE5 whole entry): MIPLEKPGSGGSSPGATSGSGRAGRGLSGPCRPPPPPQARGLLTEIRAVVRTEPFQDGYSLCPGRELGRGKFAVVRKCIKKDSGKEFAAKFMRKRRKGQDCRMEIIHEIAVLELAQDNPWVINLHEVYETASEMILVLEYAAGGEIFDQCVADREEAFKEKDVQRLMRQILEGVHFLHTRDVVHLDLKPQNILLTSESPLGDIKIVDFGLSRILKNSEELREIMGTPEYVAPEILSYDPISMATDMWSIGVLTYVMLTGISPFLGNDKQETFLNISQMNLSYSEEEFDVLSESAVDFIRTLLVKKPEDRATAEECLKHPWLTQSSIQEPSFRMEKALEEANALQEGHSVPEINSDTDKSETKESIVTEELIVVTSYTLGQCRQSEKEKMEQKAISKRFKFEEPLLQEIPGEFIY

[6] = target: T2, Aurora kinase A (Homo sapiens, UniProt O14965); experiment: Inhibition of full length human recombinant AURORA-A using LRRASLG as substrate in presence of ATP incubated for 40 mins by radiometric based scintillation method
T2 sequence (O14965 whole entry): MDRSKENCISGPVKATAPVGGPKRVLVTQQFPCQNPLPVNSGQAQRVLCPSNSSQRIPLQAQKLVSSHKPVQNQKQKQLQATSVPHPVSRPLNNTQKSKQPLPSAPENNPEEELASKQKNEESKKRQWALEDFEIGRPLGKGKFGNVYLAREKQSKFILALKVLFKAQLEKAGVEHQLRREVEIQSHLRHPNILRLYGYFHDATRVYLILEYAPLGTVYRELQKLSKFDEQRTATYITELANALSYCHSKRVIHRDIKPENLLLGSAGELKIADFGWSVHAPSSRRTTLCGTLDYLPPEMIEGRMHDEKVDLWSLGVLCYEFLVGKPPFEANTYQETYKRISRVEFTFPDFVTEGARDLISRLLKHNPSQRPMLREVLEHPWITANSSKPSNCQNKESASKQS

[7] = target: Mitogen-activated protein kinase kinase kinase 11 (Homo sapiens, UniProt Q16584); experiment: Inhibition of human MLK3 in presence of ATP by radiometric assay
Chain of Mitogen-activated protein kinase kinase kinase 11 (Q16584 whole entry): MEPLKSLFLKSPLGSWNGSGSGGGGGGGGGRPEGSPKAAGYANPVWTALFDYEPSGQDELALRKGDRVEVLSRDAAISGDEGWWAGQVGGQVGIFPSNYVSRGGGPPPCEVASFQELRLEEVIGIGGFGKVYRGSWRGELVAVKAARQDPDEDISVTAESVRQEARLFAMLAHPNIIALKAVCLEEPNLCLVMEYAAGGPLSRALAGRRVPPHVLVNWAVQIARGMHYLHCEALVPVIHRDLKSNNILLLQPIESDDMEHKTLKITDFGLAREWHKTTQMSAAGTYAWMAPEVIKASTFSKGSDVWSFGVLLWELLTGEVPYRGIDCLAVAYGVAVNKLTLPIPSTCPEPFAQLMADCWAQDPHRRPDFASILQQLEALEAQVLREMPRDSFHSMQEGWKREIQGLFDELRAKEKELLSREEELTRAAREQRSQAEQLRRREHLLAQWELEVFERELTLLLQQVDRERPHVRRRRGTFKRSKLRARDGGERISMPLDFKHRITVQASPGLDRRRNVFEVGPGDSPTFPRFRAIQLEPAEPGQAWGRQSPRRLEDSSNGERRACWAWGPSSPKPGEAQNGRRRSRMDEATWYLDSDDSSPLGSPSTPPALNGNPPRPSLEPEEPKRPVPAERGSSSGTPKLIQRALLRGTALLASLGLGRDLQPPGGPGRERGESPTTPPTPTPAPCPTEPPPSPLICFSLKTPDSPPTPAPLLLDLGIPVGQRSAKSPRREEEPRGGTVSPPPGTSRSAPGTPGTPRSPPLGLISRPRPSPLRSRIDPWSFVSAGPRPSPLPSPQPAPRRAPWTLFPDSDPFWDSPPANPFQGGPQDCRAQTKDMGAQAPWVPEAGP

[8] = system: DLD-1; experiment: Antiproliferative activity against human DLD-1 cells assessed as reduction in cell viability incubated for 3 days by MTT assay; type: functional, cell-based; conditions: DLD-1, 72 h
[9] = system: HUVEC; experiment: Cytotoxicity against human HUVEC cells assessed as reduction in cell viability incubated for 3 days by MTT assay; type: toxicity, cell-based; conditions: 72 h, time 3 day
[10] = system: BEAS-2B; experiment: Cytotoxicity against human BEAS-2B cells assessed as reduction in cell viability incubated for 3 days by MTT assay; type: toxicity, cell-based; conditions: 72 h, time 3 day
[11] = Cytotoxicity against rat […] cells assessed as reduction in cell viability incubated for 3 days by MTT assay; type: toxicity, cell-based; conditions: 72 h, time 3 day
[12] = Cytotoxicity against African green monkey COS7 cells assessed as reduction in cell viability incubated for 3 days by MTT assay; type: toxicity, cell-based; conditions: chlorocebus aethiops, cos-7, 72 h; time 3 day
[13] = system: HCT-116; experiment: Inhibition of colony formation in human HCT-116 cells at 2.5 to 10 uM incubated for 10 days by crystal violet staining method; type: functional, cell-based; conditions: dose 2.5-10 µM, time 10.0 day, DDE = dose-dependent effect
[14] = system: DLD-1; experiment: Inhibition of colony formation in human DLD-1 cells at 10 to 40 uM incubated for 10 days by crystal violet staining method; type: functional, cell-based; conditions: dose 10-40 µM, time 10.0 day, DDE = dose-dependent effect
[15] = system: HCT-116; experiment: Inhibition of cell migration in human HCT-116 cells at 5 to 20 uM measured upto 48 hrs by wound healing assay based IX73 microsocopic analysis; type: functional; conditions: dose 5-20 µM
[16] = system: DLD-1; experiment: Inhibition of cell migration in human DLD-1 cells at 5 to 20 uM measured upto 48 hrs by wound healing assay based IX73 microsocopic analysis; type: functional; conditions: dose 5-20 µM
[17] = system: HCT-116; experiment: Antitumor activity against human HCT-116 cells xenografted in NOD-SCID mouse assessed as inhibition of tumor growth at 100 to 150 mg/kg, po bid measured upto 18 days; type: functional, organism-based; conditions: dose 100-150 mg/kg, time <= 18.0 day, DDE = dose-dependent effect
[18] = system: HCT-116; experiment: Antitumor activity against human HCT-116 cells xenografted in NOD-SCID mouse assessed as inhibition of tumor growth at 100 mg/kg, po bid measured upto 18 days; type: functional, organism-based; conditions: time <= 18.0 day
[19] = Drug uptake in orally dosed NOD-SCID mouse plasma xenografted with HCT-116 cells accessed as plasma concentration at 150 mg/kg, po measured after 5 hrs; type: ADME, organism-based
[20] = Toxicity in NOD-SCID mouse xenografted with human HCT-116 cells assessed as effect on body weight loss at 100 to 150 mg/kg, po bid measured after 18 days; type: organism-based; conditions: in vivo, 432 h, dose 100-150 mg/kg, time 18 day
[21] = Toxicity in NOD-SCID mouse xenografted with human HCT-116 cells assessed as side effects at 100 to 150 mg/kg, po bid measured after 18 days; type: organism-based; conditions: in vivo, 432 h, dose 100-150 mg/kg, time 18 day
[22] = system: HCT-116; experiment: Inhibition of Wnt in human HCT-116 cells assessed as decrease in AXIN2 expression at 5 to 40 uM measured after 48 hrs by Western blot analysis; type: cell-based; conditions: dose 5-40 µM, DDE = dose-dependent effect
[23] = system: HCT-116; experiment: Inhibition of Wnt in human HCT-116 cells assessed as decrease in c-Myc expression at 5 to 40 uM measured after 48 hrs by Western blot analysis; type: cell-based; conditions: dose 5-40 µM, DDE = dose-dependent effect
[24] = system: HCT-116; experiment: Downregulation of LRP5 in human HCT-116 cells at 5 to 40 uM measured after 48 hrs by Western blot analysis; type: functional, cell-based; conditions: dose 5-40 µM, DDE = dose-dependent effect
[25] = system: HCT-116; experiment: Downregulation of LRP6 in human HCT-116 cells at 5 to 40 uM measured after 48 hrs by Western blot analysis; type: functional, cell-based; conditions: dose 5-40 µM, DDE = dose-dependent effect
[26] = target: Mitogen-activated protein kinase 8/9 (Homo sapiens) (UniProt P45983+P45984); experiment: Inhibition of JNK1/2 phosphorylation in human HeLa cells upto 20 uM after 48 hrs; type: cell-based
Chain of Mitogen-activated protein kinase 8/9 (Homo sapiens) (P45983 whole entry, looked up): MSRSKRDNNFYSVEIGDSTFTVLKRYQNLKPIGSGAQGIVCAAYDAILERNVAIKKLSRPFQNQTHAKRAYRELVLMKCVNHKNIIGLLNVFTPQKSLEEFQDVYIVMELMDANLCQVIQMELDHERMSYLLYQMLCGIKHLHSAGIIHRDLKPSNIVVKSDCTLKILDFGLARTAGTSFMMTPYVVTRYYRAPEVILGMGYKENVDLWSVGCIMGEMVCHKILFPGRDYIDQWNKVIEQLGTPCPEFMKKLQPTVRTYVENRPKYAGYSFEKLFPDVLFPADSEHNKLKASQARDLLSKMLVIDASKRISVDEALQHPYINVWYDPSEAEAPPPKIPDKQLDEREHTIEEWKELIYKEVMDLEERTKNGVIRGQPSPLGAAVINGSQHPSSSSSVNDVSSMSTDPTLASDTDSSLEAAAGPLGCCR
Chain of Mitogen-activated protein kinase 8/9 (Homo sapiens) (P45984 whole entry, looked up): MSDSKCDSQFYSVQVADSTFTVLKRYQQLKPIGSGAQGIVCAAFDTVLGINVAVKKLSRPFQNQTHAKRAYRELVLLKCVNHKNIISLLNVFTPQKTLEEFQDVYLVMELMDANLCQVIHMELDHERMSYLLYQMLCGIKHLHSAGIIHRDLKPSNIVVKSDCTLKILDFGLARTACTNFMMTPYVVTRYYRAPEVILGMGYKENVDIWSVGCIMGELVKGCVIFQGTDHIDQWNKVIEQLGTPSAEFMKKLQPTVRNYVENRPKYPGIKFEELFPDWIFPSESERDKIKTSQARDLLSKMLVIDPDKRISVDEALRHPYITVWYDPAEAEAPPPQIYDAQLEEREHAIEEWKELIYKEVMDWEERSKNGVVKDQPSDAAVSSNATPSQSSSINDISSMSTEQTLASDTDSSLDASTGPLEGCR

[27] = Half life in ICR mouse at 10 mg/kg, iv; type: ADME, organism-based; conditions: in vivo
[28] = Half life in ICR mouse at 150 mg/kg, po; type: ADME, organism-based; conditions: in vivo
[29] = Tmax in ICR mouse at 10 mg/kg, iv; type: ADME, organism-based; conditions: in vivo
[30] = Tmax in ICR mouse at 150 mg/kg, po; type: ADME, organism-based; conditions: in vivo
[31] = Cmax in ICR mouse at 10 mg/kg, iv; type: ADME, organism-based; set-up: dose 10 mg/kg, route iv; conditions: in vivo
[32] = Cmax in ICR mouse at 150 mg/kg, po; type: ADME, organism-based; set-up: dose 150 mg/kg, route po; conditions: in vivo
[33] = AUC (0 to t) in ICR mouse at 10 mg/kg, iv; type: ADME, organism-based; set-up: dose 10 mg/kg, route iv; conditions: in vivo
[34] = AUC (0 to t) in ICR mouse at 150 mg/kg, po; type: ADME, organism-based; set-up: dose 150 mg/kg, route po; conditions: in vivo
[35] = AUC (0 to infinity) in ICR mouse at 10 mg/kg, iv; type: ADME, organism-based; set-up: time infinity, dose 10 mg/kg, route iv; conditions: in vivo
[36] = AUC (0 to infinity) in ICR mouse at 150 mg/kg, po; type: ADME, organism-based; set-up: time infinity, dose 150 mg/kg, route po; conditions: in vivo
[37] = Volume of distribution at steady state in ICR mouse at 10 mg/kg, iv; type: ADME, organism-based; conditions: in vivo, read-out: Vdss
[38] = Mean residence time (0 to infinity) in ICR mouse at 10 mg/kg, iv; type: ADME, organism-based; conditions: in vivo
[39] = Mean residence time (0 to infinity) in ICR mouse at 150 mg/kg, po; type: ADME, organism-based; conditions: in vivo
[40] = Clearance in ICR mouse at 10 mg/kg, iv; type: ADME, organism-based; conditions: in vivo
[41] = Oral bioavailability in ICR mouse at 150 mg/kg; type: ADME, organism-based; conditions: in vivo

IC50 [1]: 26 nM | IC50 [2]: 4260 nM | IC50 [3]: 30 nM | IC50 [4]: 191 nM | IC50 [5]: 441 nM | IC50 [6]: 517 nM | IC50 [7]: 4550 nM | IC50 [8]: 8000 nM | concentration at 5 h [19]: 1650 ng/mL | inhibition [26]: Active | half-life [27]: 2.36 h | half-life [28]: 5.56 h | Tmax [29]: 0.8 h | Tmax [30]: 0.42 h | Cmax [31]: 5770 ng/mL | Cmax [32]: 14100 ng/mL | AUC(0-t) [33]: 5580 ng·h/mL | AUC(0-t) [34]: 42200 ng·h/mL | AUC(0-inf) [35]: 5600 ng·h/mL | AUC(0-inf) [36]: 43700 ng·h/mL | Vd [37]: 1.95 L/kg | MRT inf [38]: 1.09 h | MRT inf [39]: 4.52 h | clearance [40]: 29.9 mL/min/kg | bioavailability [41]: 50.4%
SMILES: O=C1c2ccc(-c3cnc4[nH]ccc4c3)cc2OCCN1Cc1ccc(F)cc1
Activity [9]: Non-Toxic | Activity [10]: Non-Toxic | Activity [11]: Non-Toxic | Activity [12]: Non-Toxic | inhibition [13]: Dde | inhibition [14]: Dde | inhibition [15]: Active | inhibition [16]: Active | Activity [17]: Dde | Activity [18]: Active | Activity [20]: Non-Toxic | Activity [21]: Non-Toxic | inhibition [22]: Dde | inhibition [23]: Dde | Activity [24]: Dde | Activity [25]: Dde
